Laboratory results taken from patent US10470459B2, “Antimicrobial preparations, methods for preparing the same and uses thereof to combat microorganisms” (IPABC LTD, priority 2014, dated 2019).
Where two headings read alike, the source gives them in different places.

What was measured:
E. coli = assay: Antimicrobial efficacy, CFU count after 30 min contact; assay type: cell-based; settings: ε-polylysine 250 ppm, AG 6210 0
Experimental: 100 μl of an E. coli suspension (˜1.5×10^8 CFUs) was added to 900 μl of a freshly prepared dilute ε-polylysine/AG6210 mixture of the invention (prepared as described above) and incubated for 30 min at room temperature. Reaction was stopped by adding 9 ml of neutraliser. Mixture was then diluted 1:10 and 1:100 and 100 μl of the neat mixture and each dilution was applied to agar plates. Plates were incubated for 48 hrs at 37° C. and CFUs counted.
The antimicrobial efficacy of the following dilute ε-polylysine/AG6210 mixtures, prepared in accordance with the invention, was assessed as described above.

[1] = Turbidity of diluted mixtures, OD at 570 nm; assay type: physicochemical; settings: diluted from stock of 100000 ppm AG6210 and/or 25000 ppm ε-polylysine, analysed immediately
Text: In general the experiments described in Examples 2 to 17 comprise two stages. First stage is the preparation of a concentrated solution of the surfactant(s) and crystal substrate in drinking water. This stage may involve the mixing of a pre-prepared stock solution(s) of the surfactant in drinking water and a pre-prepared stock solution of the substrate in drinking water. The exact procedure used is set out in each Example. The second stage is the dilution of aliquots of the stock solution with single aliquots of drinking water in glass vessels to result in diluted mixtures with varying (theoretical) concentrations of surfactant(s) and substrate as recited in the Tables of each Example. The diluted mixtures were incubated for the time and at the temperature recited in each Example before the amount of particulate matter in the mixture was assessed. This assessment was by spectrophotometer set to measure OD at a wavelength of 570 nm in Example 2 and, for Examples 3 to 17, by naked eye upon agitation of the vessel and illumination by electric light. […]
Test mixtures (100 ml) were prepared by pipetting appropriate amounts of the concentrated solution into glass flasks and adjusting the volume to 100 ml with drinking water. Mixtures were analysed immediately by measuring OD at 570 nm. […]

[2] = H2O, 20° C., cited from earlier work
[3] = Critical micelle concentration (CMC); assay type: physicochemical; settings: H2O, 20° C.; approx. conversion of the mM value
Text: The term “critical micelle concentration” refers to the concentration of a surfactant in a polar solvent above which the surfactant molecules will spontaneously arrange as a micelle. In accordance with the invention, this value may be expressed in any convenient units of concentration, with the exception that when CMC values are undergoing comparison, the value is expressed as a molar concentration (i.e. in units of M, mM, μM, etc., as appropriate). In the present context a micelle is considered to be a colloid arrangement of surfactant molecules in a polar solvent in which the hydrophilic head groups are oriented towards the polar solvent in a substantially spherical shape and the hydrophobic tail groups are sequestered to the interior of the sphere. In the present context a reference to the CMC of a surfactant is a reference to the CMC of the surfactant in the conditions of the aqueous liquid composition of the invention (including physical conditions such as temperature), unless otherwise indicated. For convenience, this may be taken as the CMC of the surfactant in isolation in pure water at 20° C. CMC values may be calculated by any convenient means, preferably by one of the methods described in Mukerjee P., et. al, Critical Micelle Concentrations of Aqueous Surfactant Systems, United States Department of Commerce, Nat. Stnd. Ref. Data Ser., Nat. Bur. Stand., February 1971 (U.S.).

| Compound | CMC [2] | further results |
| --- | --- | --- |
| ε-polylysine |  | CFUs in each dilution of E. coli culture (E. coli; dilution 1:1): 100 CFUs; CFUs in each dilution of E. coli culture (E. coli; dilution 1:10): 40 CFUs; CFUs in each dilution of E. coli culture (E. coli; dilution 1:100): 25 CFUs; Turbidity upon dilution (OD at 570 nm) [1]: do not show turbidity |
| CCCCCCCCO[C@@H]1O[C@H](CO)[C@@H](O[C@H]2O[C@H](CO)[C@@H](O)[C@H](O)[C@H]2O)[C@H](O)[C@H]1O [n-octyl-β-D-maltopyranoside] | CMC (H2O, 20° C.) of n-octyl-β-D-maltopyranoside: 23 mM |  |
| alkyl-dimethylbenzyl ammonium chloride | 0.7 mM |  |
| CCCCCCCCC(=O)N(C)C[C@H](O)[C@@H](O)[C@H](O)[C@H](O)CO [n-nonanoyl-N-methylglucamine] | CMC (H2O, 20° C.) of n-nonanoyl-N-methylglucamine: 19-25 mM | CMC ([2]; listed as N-nonanoyl-N-methylglucamine): CMC (H2O, 20° C.) of N-nonanoyl-N-methylglucamine: 19-25 mM |
| CCCCCCCCCC[N+](C)(C)CCCCCCCCCC.[Cl-] [di-n-decyldimethyl ammonium chloride] | 1.5 mM |  |
| CCCCCCCS[C@@H]1O[C@H](CO)[C@@H](O)[C@H](O)[C@H]1O [n-heptyl-β-D-thioglucoside] | CMC (H2O, 20° C.) of n-heptyl-β-D-thioglucoside: 29 mM |  |
| CCCCCCCCCCO[C@@H]1O[C@H](CO)[C@@H](O[C@H]2O[C@H](CO)[C@@H](O)[C@H](O)[C@H]2O)[C@H](O)[C@H]1O [n-decyl-β-D-maltopyranoside] | CMC (H2O, 20° C.) of n-decyl-β-D-maltopyranoside: 1.6 mM |  |
| CCCCCCCCO[C@@H]1O[C@H](CO)[C@@H](O)[C@H](O)[C@H]1O [n-octyl-β-D-glucopyranoside] |  | CMC [3]: ~2800 ppm |
